Measured values published in patent publication US9422292B2, “Bromodomain inhibitors and uses thereof” (Constellation Pharmaceuticals, Inc., priority 2011, dated 2016).
Where two headings read alike, the source gives them in different places.

Columns and labels:
BRD4 (BD1) = target: T1, BRD4 (BD1) (Homo sapiens, UniProt O60885); experiment: BRD4 AlphaLisa binding assay
T1 construct: His; made in house
Method: A. IC50 Measurements for Inhibitors Using BRD4 AlphaLisa Binding Assay.
Specifically, in a 384 well ProxiPlate BRD4 (BD1) (30 nM final) was combined with peptide (200 nM final) in 40 mM HEPES (pH 7.0), 40 mM NaCl, 1 mM DTT, 0.01% (w/v) BSA, and 0.008% (w/v) Brij-35 either in the presence of DMSO (final 1.2% DMSO) or compound dilution series in DMSO. After 20 minute incubation at room temperature Alpha streptavidin donor beads and AlphaLisa anti-Flag acceptor beads were added to a final concentration of 10 ug/mL each. After three hours equilibration plates were read on an Envision instrument and IC50s calculated using a four parameter non-linear curve fit.

[1] = tested on: MYC mRNA in MV4:11 (AML) cells; experiment: cMyc RNA quantification assay (QuantiGene) in MV4:11 cells; format: cell-based; conditions: Homo sapiens, 4 h, QuantiGene 2.0
Method: B. cMyc RNA Quantification Assay (QuantiGene® Assay):
MV4:11 (AML) cells were seeded in a 96-well plate and incubated in the presence of various concentrations of compounds for 4 h. Relative mRNA levels were quantitated by using QuantiGene 2.0 assay (Affymetrix) according to the manufacturer's recommendation. Signals were detected by using an Envision plate reader (Perkin-Elmer). Biological duplicates were averaged and normalized to vehicle (DMSO) control to calculate percent MYC mRNA levels.

[2] = tested on: IL-6 secretion in THP-1 cells; experiment: Cell-based IL-6 quantification assay (ELISA, Mesoscale) in LPS-treated THP-1 cells; conditions: Homo sapiens, LPS 4 μg/mL, 16 h, ELISA value/CellTiter-Glo ratio
Method: C. Cell-Based IL-6 Quantification Assay (ELISA, Mesoscale Assay):
100,000 THP-1 cells were seeded in RPMI1640-10% FBS in 96-well plates. LPS (E. Coli Invitrogen) in RPMI−10% FBS at a final concentration of 4 μg/mL was added to the wells and the cells are then incubated in the presence of various concentrations of compounds for 16 h. Plates are spun ([…], 5 min), an aliquot of 25 uL supernatant is transferred in to an ELISA plate (Mesoscale technology, MSD) and the detection of IL-6 is performed using manufacturer's instructions. The amount of cells in each well is assessed using CellTiter-Glo® (Promega). The ratio of ELISA value/CellTiter-Glo value is used to calculate the percent of inhibition of IL-6 secretion.

[3] = BRD4 (BD1) 30 nM, biotinylated H4-tetraacetyl peptide 200 nM, read-out: BRD4 AlphaLisa

| SMILES | IC50 (BRD4 (BD1); [3]) [nM] | IC50 [1] [nM] | IC50 [2] [nM] | IC50 (BRD4 (BD1)) [nM] |
| --- | --- | --- | --- | --- |
| Cc1nnc2n1-c1ccc(-c3ccc(N)nc3)cc1N(c1ccc(Cl)cc1)C[C@@H]2C [Compound 27, (S)-4H-[1,2,4]triazolo[4,3-a][1,5]benzodiazepine, 5,6-dihydro-1,4-dimethyl-8-(6-aminopyridin-3-yl)-6-(4-chloro-phenyl)] | 100 to 1000 | 1000 to 10000 | 100 to 1000 |  |
| Cc1ccc(-c2ccc3c(c2)N(c2ccc(Cl)cc2)C[C@H](C)c2nnc(C)n2-3)cn1 [Compound 28, (S)-4H-[1,2,4]triazolo[4,3-a][1,5]benzodiazepine, 5,6-dihydro-1,4-dimethyl-8-(6-methylpyridin-3-yl)-6-(4-chloro-phenyl)] | 1000 to 10000 | 1000 to 10000 | 1000 to 10000 |  |
| Cc1nnc2n1-c1ccc(-c3ccc(C(=O)O)cc3)cc1N(c1ccc(Cl)cc1)CC2 [Compound 20, 4H-[1,2,4]triazolo[4,3-a][1,5]benzodiazepine,5,6-dihydro-1-methyl-8-(4-carboxy-phenyl)-6-(4-chloro-phenyl)] | < 100 | 100 to 1000 | 100 to 1000 |  |
| Cc1nnc2n1-c1ccc(-c3ccc(N)nc3)cc1N(c1ccc(C(F)(F)F)cc1)CC2 [Compound 19, 4H-[1,2,4]triazolo[4,3-a][1,5]benzodiazepine,5,6-dihydro-1-methyl-8-(6-amino-pyridin-3-yl)-6-(4-trifluoromethyl-phenyl)] | < 100 | 100 to 1000 | < 100 |  |
| Cc1nnc2n1-c1ccc(-c3ccc(=O)[nH]c3)cc1N(c1ccc(C#N)cc1)C[C@H]2C [Compound 68, (R)-4-(1,4-dimethyl-8-(6-oxo-1,6-dihydropyridin-3-yl)-4H-benzo[b][1,2,4]triazolo[4,3-d][1,4]diazepin-6(5H)-yl)benzonitrile] | < 100 | 1000 to 10000 | 1000 to 10000 |  |
| Cc1nnc2n1-c1ccc(-c3ccc(=O)n(C)c3)cc1N(c1ccc(Cl)cc1)C[C@H]2C [Compound 62, (R)-5-(6-(4-chlorophenyl)-1,4-dimethyl-5,6-dihydro-4H-benzo[b][1,2,4]triazolo[4,3-d][1,4]diazepin-8-yl)-1-methylpyridin-2(1H)-one] | < 100 | < 100 | < 100 |  |
| Cc1nnc2n1-c1ccccc1N(c1ccc(Cl)cc1)CC2C (stereo not drawn) [Compound 1, 6-(4-chlorophenyl)-1,4-dimethyl-5,6-dihydro-4H-benzo[b][1,2,4]triazolo[4,3-d][1,4]diazepine] |  | 100 to 1000 | 100 to 1000 | 100 to 1000 |
| Cc1nnc2n1-c1ccc(-c3cnn(C)c3)cc1N(c1ccc(C#N)cn1)C[C@H]2C [Compound 52, (R)-4H-[1,2,4]triazolo[4,3-a][1,5]benzodiazepine,5,6-dihydro-1,4-dimethyl-8-(1-methyl-1H-pyrazol-4-yl)-6-(5-cyanopyridin-2-yl)] | < 100 | 100 to 1000 | < 100 |  |
| Cc1nnc2n1-c1ccc(-c3ccc(=O)[nH]c3)cc1N(c1ccc(Cl)cc1)C[C@H]2C [Compound 61, (R)-5-(6-(4-chlorophenyl)-1,4-dimethyl-5,6-dihydro-4H-benzo[b][1,2,4]triazolo[4,3-d][1,4]diazepin-8-yl)pyridin-2(1H)-one] | < 100 | < 100 | < 100 |  |
| Cc1nnc2n1-c1ccc(C(N)=O)cc1N(c1ccc(Cl)cc1)C[C@H]2C [Compound 41, 4-R-4H-[1,2,4]Triazolo[4,3-a][1,5]benzodiazepine,5,6-dihydro-1,4-dimethyl-8-carbamoyl-6-(4-chloro-phenyl)] | < 100 | < 100 | 100 to 1000 |  |
| Cc1nnc2n1-c1ccc(-c3ncc(C(=O)O)cn3)cc1N(c1ccc(Cl)cc1)CC2 [Compound 24, 4H-[1,2,4]triazolo[4,3-a][1,5]benzodiazepine, 5,6-dihydro-1-methyl-8-(5-(carboxy)pyrimidin-2-yl)-6-(4-chloro-phenyl)] | < 100 | 1000 to 10000 | > 1000 |  |
| Cc1nnc2n1-c1ccc(-c3cnc(N)nc3)cc1N(c1ccc(Cl)cc1)C[C@H]2C [Compound 39, (R)-4H-[1,2,4]triazolo[4,3-a][1,5]benzodiazepine,5,6-dihydro-1,4-dimethyl-8-(2-aminopyrimidin-5-yl)-6-(4-chloro-phenyl)] | < 100 | < 100 | < 100 |  |
| Cc1nnc2n1-c1ccc(-c3cnn(C)c3)cc1N(c1ccc(Cl)cc1)C[C@@H]2C [Compound 42, (S)-4H-[1,2,4]triazolo[4,3-a][1,5]benzodiazepine, 5,6-dihydro-1,4-dimethyl-8-(1-methyl-1H-pyrazol-4-yl)-6-(4-chloro-phenyl)] | 100 to 1000 | 1000 to 10000 | > 1000 |  |
| Cc1nnc2n1-c1ccc(C(=O)N3CCCC3)cc1N(c1ccc(Cl)cc1)C[C@H]2C [Compound 53, 4-R-4H-[1,2,4]triazolo[4,3-a][1,5]benzodiazepine,5,6-dihydro-1,4-dimethyl-8-(pyrrolidine-1-carbonyl)-6-(4-chloro-phenyl)] | 100 to 1000 | 1000 to 10000 | 100 to 1000 |  |
| Cc1nnc2n1-c1ccc(S(C)(=O)=O)cc1N(c1ccc(Cl)cc1)C[C@H]2C [Compound 60, 4H-[1,2,4]Triazolo[4,3-a][1,5]benzodiazepine,5,6-dihydro-(4R)-1,4-dimethyl-8-methylsulfonyl-6-(4-chloro-phenyl)] | 100 to 1000 | 1000 to 10000 | 100 to 1000 |  |

More lines, main results first:

| IC50 (BRD4 (BD1); [3]) [nM] | IC50 [1] [nM] | IC50 [2] [nM] | SMILES | IC50 (BRD4 (BD1)) [nM] |
| --- | --- | --- | --- | --- |
| 100 to 1000 | 100 to 1000 | > 1000 | Cc1nnc2n1-c1ccc(-c3ccc(=O)[nH]c3)cc1N(c1ccc(Cl)cn1)C[C@H]2C [Compound 82, (R)-5-(6-(5-chloropyridin-2-yl)-1,4-dimethyl-5,6-dihydro-4H-benzo[b][1,2,4]triazolo[4,3-d][1,4]diazepin-8-yl)pyridin-2(1H)-one] |  |
| 100 to 1000 | 100 to 1000 | > 1000 | Cc1[nH]c(=O)ccc1-c1ccc2c(c1)N(c1ccc(Cl)cc1)C[C@@H](C)c1nnc(C)n1-2 [Compound 85, (R)-5-(6-(4-chlorophenyl)-1,4-dimethyl-5,6-dihydro-4H-benzo[b][1,2,4]triazolo[4,3-d][1,4]diazepin-8-yl)-6-methylpyridin-2(1H)-one] |  |
| < 100 | 100 to 1000 | 100 to 1000 | Cc1nnc2n1-c1ccc(-c3cnn(C)n3)cc1N(c1ccc(S(C)(=O)=O)cc1)C[C@H]2C [Compound 73, (S)-4H-[1,2,4]Triazolo[4,3-a][1,5]benzodiazepine, 5,6-dihydro-1,4-dimethyl-8-(2-methyl-2H-1,2,3-triazole-4-yl)-6-(4-methylsulfonyl-phenyl)] |  |
| 100 to 1000 | 1000 to 10000 | > 1000 | Cc1nnc2n1-c1ccc(-c3cnn(C)n3)cc1N(c1ccc(S(C)(=O)=O)cc1)C[C@@H]2C [Compound 72, (R)-4H-[1,2,4]Triazolo[4,3-a][1,5]benzodiazepine, 5,6-dihydro-1,4-dimethyl-8-(2-methyl-2H-1,2,3-triazole-4-yl)-6-(4-methylsulfonyl-phenyl)] |  |
| < 100 | < 100 | < 100 | Cc1nnc2n1-c1ccc(-c3cnn(C)n3)cc1N(c1ccc(C#N)cc1)C[C@H]2C [Compound 75, (S)-4H-[1,2,4]Triazolo[4,3-a][1,5]benzodiazepine, 5,6-dihydro-1,4-dimethyl-8-(2-methyl-2H-1,2,3-triazole-4-yl)-6-(4-cyano-phenyl)] |  |
| < 100 | < 100 | < 100 | Cc1nnc2n1-c1ccc(-c3cnc(N)cn3)cc1N(c1ccc(Cl)cn1)C[C@H]2C [Compound 83, (R)-5-(6-(5-chloropyridin-2-yl)-1,4-dimethyl-5,6-dihydro-4H-benzo[b][1,2,4]triazolo[4,3-d][1,4]diazepin-8-yl)pyrazin-2-amine] |  |
| > 500 | 1000 to 10000 | > 1000 | COc1ccc2c(n1)N(c1ccc(C#N)cc1)CC(C)c1nnc(C)n1-2 (stereo not drawn) [Compound 84, 4-(8-methoxy-1,4-dimethyl-4H-pyrido[2,3-b][1,2,4]triazolo[4,3-d][1,4]diazepin-6(5H)-yl)benzonitrile] |  |
| < 100 | 1000 to 10000 | 1000 to 10000 | Cc1nnc2n1-c1ccc(-c3ccc(N)nc3)cc1N(c1ccc(C(N)=O)cc1)CC2C (stereo in doubt) [Compound 70, (S)-4-(8-(6-aminopyridin-3-yl)-1,4-dimethyl-4H-benzo[b][1,2,4]triazolo[4,3-d][1,4]diazepin-6(5H)-yl)benzamide] |  |
